Laboratory results from publication PMC6403271, “Characterization, mechanism of action and optimization of activity of a novel peptide-peptoid hybrid against bacterial pathogens involved in canine skin infections” (Scientific Reports, 2019).
Entries after “also recorded” stand apart in the source; their conditions may differ. Square brackets hold non-standard residues; d marks the D form. Peptide text beside a SMILES is read from it. N(1-naphthylmethyl)Gly = O=C(O)CNCc1cccc2ccccc12; N(4-MeBn)Gly = Cc1ccc(CNCC(=O)O)cc1; NBuGly = CCCCNCC(=O)O

Experiments:
P. aeruginosa isolates = assay: MIC, panel of 50 canine P. aeruginosa isolates; assay type: cell-based, Pseudomonas aeruginosa
Procedure: Activity of B1 was tested on 50P. aeruginosa isolates and 57S. pseudintermedius isolates (including 7 MRSP) that had been isolated in the diagnostic laboratory Sund Vet Diagnostik (University of Copenhagen) from various infections in dogs between 2009 and 2011. Representative MRSP (C22963), MSSA, and P. aeruginosa (26314) were used for testing the first set of B1 analogues.
MIC determination was performed by broth microdilution according to the Clinical and Laboratory Standard Institute (CLSI, M31-A3, 2008)[62]. In brief, each bacterial strain was diluted to concentration of 5 × 10^5 CFU/mL in Mueller Hinton broth II (MHB II) media (Oxoid) and added to a two-fold serial dilution of peptides and peptide-peptoid hybrids concentrations ranging from 1 to 64 µg/ml in 96-well plates (Nunc Internationals, Rochester, NY). The MICs were determined as a lowest concentration showing no visible growth after incubation for 18 hours at 37 °C. Experiments were performed in triplicates on two different days.

[1] = system: DNA synthesis in MRSP E104; assay: Macromolecule biosynthesis rate, DNA (3H-Thymidine); assay type: cell-based, Staphylococcus pseudintermedius; details: MRSP E104, 1.5 µg/mL, 20 min
Procedure: Macromolecule biosynthesis rate was measured in MRSP E104 following a protocol adapted from Ling et al.[65]. Briefly, E104 overnight culture was sub-cultured 1:100 in MHB II and grown up to OD 0.2 at 600 nm. Cells were pelleted down by centrifugation and resuspended in fresh medium followed by incubation for 20 min with B1 or nisin at 1.5 µg/ml and 1.25 µg/ml, respectively, and radiolabeled precursor: (50µCi) 3H-Thymidine (PerkinElmer) and (5µCi) 3H-glucosamine hydrochloride per ml for DNA and cell wall, respectively. A positive control without antimicrobial was maintained. After incubation, samples were precipitated with equal volume of cold 30% TCA (Sigma) on ice. Precipitates were filtered on a membrane filter and subsequently subjected to two washes of cold 15% TCA and two washes of cold water using vacuum manifold. Subsequently, filters were air dried overnight and then transferred to 10 ml scintillation vials. Finally, scintillation fluid (3 ml) was added to each vial and ^3H count was taken in Beckman Coulter LS6500 liquid scintillation counter for one minute. The radioactive counts of the control samples were considered to have 100% precursor incorporation and macromolecule synthesis. The percentage rates of the antimicrobial-exposed samples were calculated accordingly. Each experiment was performed with replicates and the average rates of incorporation were plotted.

MRSP E104 = assay: Time-kill kinetics, MRSP E104; assay type: cell-based, Staphylococcus pseudintermedius
Procedure: Time kill assays were performed in triplicate, meaning that every value is the average of three different samplings. Time–kill kinetic assays were performed using P. aeruginosa (26314), MRSP E104 and/or MRSP C22963 to determine the cell killing activity of B1 and two of its most promising analogues (compounds 23 and 26) based on prior antimicrobial susceptibility testing. The method reported by Blondeau et al.[63] was followed with minor modifications. […] After 0, 15, 30, 60, 120, 180 and 300 min of growth, 100 μL aliquots were collected and 10-fold serially diluted. Twenty μL of cell suspension from each dilution were spotted in triplicate on blood agar plates followed by 16–18 h incubation at 37 °C and determination of colony forming units (CFU).

CCCCN(CC(=O)N[C@@H](CCCCN)C(=O)N(CC(=O)N(CC(=O)N(CC(N)=O)Cc1cccc2ccccc12)Cc1ccc(C)cc1)Cc1cccc2ccccc12)C(=O)[C@H](CCCCN)NC(=O)[C@@H](N)CCCCN [B1, Lys-Lys-(NBu)Gly-Lys-(N1-Nal)Gly-(N4-MeBn)Gly-(N1-Nal)Gly] (H-KK[NBuGly]K[N(1-naphthylmethyl)Gly][N(4-MeBn)Gly][N(1-naphthylmethyl)Gly]-NH2)
MICs against a panel of 50 P. aeruginosa isolates (P. aeruginosa isolates): 8 to 16 µg/mL
effect on DNA replication [1]: without affecting DNA replication; also recorded: no effect on DNA replication
time to complete killing of MRSP E104 (MRSP E104; 2 × MIC): 2 h
time to complete killing of MRSP E104 (MRSP E104; 4 × MIC): 1 h
time to kill MRSP (MRSP E104; 8 x MIC): less than 30 min
